Experiments:
[1] = Mouse pharmacokinetic experiment; type: in vivo; conditions: male, ICR mice, plasma
Description: II. Mouse Pharmacokinetic Experiment 1. Test Compounds
(§1) The compounds used in this experiment are specific embodiments of the present invention, with reference to compound AMG473 as an example from Amgen's patent WO 2022/169948A1, identified as example 473.
ICR male mice, N=3/group; sourced from Zhejiang Vital River Laboratory Animal Technology Co., Ltd.
3. Drug Preparation and Administration
(§2) Single oral (PO) administration to ICR mice: Compounds were dissolved in dimethyl sulfoxide, added to polyethylene glycol 400 and sterile water, and then adjusted to a clear solution with a small amount of 1 mol/L hydrochloric acid. After overnight fasting, the mice were orally gavaged with a dose of 10 mg/kg.
as §2, with “intravenous (IV)” for “oral (PO)”, “received tail vein injections” for “were orally gavaged”, “3” for “10”
Approximately 30 μL/time point blood samples were collected via the tail vein. Potassium ethylenediaminetetraacetate was used as an anticoagulant, and samples were centrifuged at 4000 g/min for 5 minutes at 4° C. within 1 hour. Blood sampling time points were 0.0833 (IV), 0.25, 0.5, 1, 2, 4, 6, 8, 24 hours. Samples were stored in a −20° C. freezer.
Plasma samples (30 μL, 10 μL sample+20 μL blank plasma) were mixed with 200 μL ice-cold acetonitrile containing internal standards. After vortexing for 30 seconds, samples were centrifuged at 4000 g/min for 20 minutes. One hundred microliters of the supernatant were transferred to a 96-well plate, followed by the addition of 200 μL ultrapure water. After vortexing for 30 seconds, 5 μL or 10 μL were injected into LC-MS/MS for analysis.

[2] = tested on: HCT-116 MTAP(−/−) deficient cells; test: Inhibitory activity on proliferation of HCT-116 MTAP(−/−) deficient cells (Cell-Titer Glo, 8 days); type: cell-based; conditions: Homo sapiens, HCT-116, 192 h, 8 days incubation
Description: Test 1: Compound's inhibitory activity on proliferation of HCT-116 MTAP(−/−) deficient cells. P Materials and Cells: HCT-116 MTAP(−/−) deficient cells obtained from Kyinno Bio (China); RPMI-1640 medium, fetal bovine serum, and penicillin-streptomycin purchased from Thermo Fisher Scientific (America); 384-well plates from PerkinElmer (America); Cell-Titer Glo assay kit from Promega (America).
Cell Culture: HCT116 MTAP(−/−) deficient cells were cultured in RPMI 1640 medium containing 10% fetal bovine serum and 1% penicillin-streptomycin at 37° C., 5% CO2. Only cells in logarithmic growth phase were used for experiments.
(§3) Cell Proliferation Inhibition Assay: The compound's inhibitory activity on HCT-116 MTAP(−/−) deficient cells was assessed using the Cell-Titer Glo assay kit. Adjusting cell concentration, 40 μL was seeded into a 384-well plate and cultured overnight at 37° C., 5% CO2. Each well received 40 nL of the compound, achieving concentrations from 0 to 10,000 nM (starting concentration 10,000 nM, 3-fold dilution, 10 points), with 0.1% DMSO. The cell plate was incubated for 8 days at 37° C., 5% CO2. Cell-Titer Glo reagent (40 μL) was added to measure cell viability.

[3] = target: hERG ion channel (Homo sapiens, UniProt Q12809); test: hERG ion channel inhibition experiment (manual patch clamp, HEK293 cells); type: cell-based; conditions: HEK293 cells stably expressing hERG, whole-cell patch clamp, n=2
Description: III. hERG Ion Channel Inhibition Experiment
as §1
2. Cell Line and Cell Culture
Stably expressing hERG ion channel HEK293 cell line (Catalog: K1236) was purchased from Invitrogen. This cell line was cultured in a medium containing 85% DMEM, 10% dialyzed fetal bovine serum, 0.1 mM non-essential amino acid solution, 100 U/mL penicillin-streptomycin solution, 25 mM HEPES, 5 μg/mL blasticidin, and 400 μg/mL geneticin. When the cell density reached 40%˜80% of the culture dish area, digestion was performed using trypsin, and cells were passaged three times per week. Before the experiment, cells were cultured at a density of 5×10′ in 3.5 cm culture dishes, induced with […] Doxycycline for 48 hours. Subsequently, cells were digested and seeded onto slides for subsequent manual patch clamp experiments.)
3. Experimental Procedure
• 1) Place glass slides containing HEK293 cells in the perfusion chamber of the micro-manipulation station. • 2) Under an Olympus IX71 or IX73 inverted microscope, position suitable cells in the central field of view using a ×10 objective. Locate the tip of the glass electrode in the central field. Use the micromanipulator to lower the electrode while adjusting the coarse focus spiral to slowly approach the cell. • 3) When approaching the cell rapidly, switch to a ×40 objective for observation. Fine-tune the electrode approach using the micromanipulator to gradually reach the cell's surface. • 4) Apply negative pressure to establish 1GQ seal between the electrode tip and the cell membrane. • 5) Compensate for the transient capacitance current Cfast under voltage clamp mode. Then, repeat the brief negative pressure application for membrane rupture, ultimately reaching the whole-cell recording mode. • 6) Under voltage clamp at −60 mV, compensate for slow capacitance current Cslow, cell membrane capacitance (Cm), and input membrane resistance (Ra). • 7) Once the cell is stable, change the clamping voltage to −90 mV, set the sampling frequency to 20 kHz, and the filtering frequency to 10 kHz. Leak current detection conditions involve changing the clamping voltage to −80 mV for a duration of 500 ms. • 8) The hERG current testing method is as follows: Apply a 4.8-second depolarization command voltage to depolarize the membrane potential from −80 mV to +30 mV, then instantly apply a 5.2-second repolarization voltage to reduce the membrane potential to −50 mV to remove channel inactivation, allowing observation of the hERG tail current. The peak of the tail current represents the size of the hERG current. • 9) The hERG current […] is continuously recorded for 120 seconds before administration to assess the stability of the tested cells in producing hERG currents. Only stable cells within an acceptable range are eligible for subsequent compound testing. • 10) Testing the inhibitory effect of the test compound on hERG current: First, determine the baseline of hERG current obtained in extracellular fluid containing 0.1% DMSO. After maintaining stable hERG current for at least 5 minutes, sequentially perfuse the solution containing the test compound around the cells from low to high concentrations. After each perfusion, wait for about 5 minutes to allow the compound to act on the cells and simultaneously record hERG currents. Record the last 5 hERG current values after the recorded current stabilizes, and take their average as the final current value at a specific concentration. […] Meanwhile, positive compound dofetilide is synchronously detected before and after the end of the test drug experiment using the same patch clamp system to ensure the reliability and sensitivity of the entire detection system. The above test steps will be repeated on two separate test cells (n=2). 4. Data Analysis […]

[4] = tested on: HCT-116 MTAP wild-type cells; test: Inhibitory activity on proliferation of HCT-116 MTAP wild-type cells (Cell-Titer Glo, 8 days); type: cell-based; conditions: Homo sapiens, HCT-116, 192 h, 8 days incubation
Description: Test 2: Compound's inhibitory activity on proliferation of HCT-116 MTAP wild-type cells.
Materials and Cells: HCT-116 MTAP wild-type cells obtained from Kyinno Bio (China); RPMI-1640 medium, fetal bovine serum, and penicillin-streptomycin purchased from Thermo Fisher Scientific (America); 384-well plates from PerkinElmer (America); Cell-Titer Glo assay kit from Promega (America).
Cell Culture: HCT116 MTAP wild-type cells were cultured in RPMI 1640 medium containing 10% fetal bovine serum and 1% penicillin-streptomycin at 37° C., 5% CO2. Only cells in logarithmic growth phase were used for experiments.
as §3, with “MTAP wild-type” for “MTAP(−/−) deficient”

Sequence of hERG ion channel (Q12809 whole entry): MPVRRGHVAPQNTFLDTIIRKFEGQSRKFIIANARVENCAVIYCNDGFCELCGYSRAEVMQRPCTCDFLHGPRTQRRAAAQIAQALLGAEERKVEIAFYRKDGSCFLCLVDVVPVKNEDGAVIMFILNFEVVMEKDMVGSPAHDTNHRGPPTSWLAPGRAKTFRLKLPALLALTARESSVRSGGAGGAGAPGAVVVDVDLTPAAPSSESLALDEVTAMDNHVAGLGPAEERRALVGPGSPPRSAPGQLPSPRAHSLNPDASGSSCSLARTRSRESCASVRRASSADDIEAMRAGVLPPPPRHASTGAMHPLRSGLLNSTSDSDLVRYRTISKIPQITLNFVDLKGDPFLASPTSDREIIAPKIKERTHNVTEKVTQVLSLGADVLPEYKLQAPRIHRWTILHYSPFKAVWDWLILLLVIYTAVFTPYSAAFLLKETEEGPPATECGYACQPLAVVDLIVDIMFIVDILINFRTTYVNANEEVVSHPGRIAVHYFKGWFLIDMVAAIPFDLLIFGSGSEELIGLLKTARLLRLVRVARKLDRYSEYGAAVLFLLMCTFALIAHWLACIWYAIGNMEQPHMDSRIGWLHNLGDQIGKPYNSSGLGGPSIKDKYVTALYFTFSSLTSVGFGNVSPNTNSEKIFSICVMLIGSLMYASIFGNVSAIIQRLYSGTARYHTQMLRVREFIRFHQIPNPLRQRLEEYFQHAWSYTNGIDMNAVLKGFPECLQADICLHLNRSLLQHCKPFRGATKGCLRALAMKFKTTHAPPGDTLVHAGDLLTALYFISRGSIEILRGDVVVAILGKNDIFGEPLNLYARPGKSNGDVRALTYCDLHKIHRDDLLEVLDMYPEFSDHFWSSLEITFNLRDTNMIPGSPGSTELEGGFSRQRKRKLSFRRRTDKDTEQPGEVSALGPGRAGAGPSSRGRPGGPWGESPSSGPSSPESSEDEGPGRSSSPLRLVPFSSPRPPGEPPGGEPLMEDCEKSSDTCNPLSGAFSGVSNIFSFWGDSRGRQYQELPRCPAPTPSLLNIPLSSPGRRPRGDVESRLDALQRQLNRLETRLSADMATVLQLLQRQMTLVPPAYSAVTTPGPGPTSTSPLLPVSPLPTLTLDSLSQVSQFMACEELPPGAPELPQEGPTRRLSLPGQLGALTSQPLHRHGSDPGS

| AUC(0-t) ([1]; IV 3 mg/kg) | AUC(0-t) ([1]; PO 10 mg/kg) | half-life ([1]; IV 3 mg/kg) | half-life ([1]; PO 10 mg/kg) | Compound | bioavailability ([1]; PO 10 mg/kg vs IV 3 mg/kg, read-out: Bioavailability F) | IC50 [2] | IC50 [3] | IC50 [4] |
| --- | --- | --- | --- | --- | --- | --- | --- | --- |
| 9710 ng·h/mL | 42500 ng·h/mL | 3.65 h | 3.31 h | [2H]C([2H])([2H])N(C(=O)c1ccc2nc(N)c3cncn3c2c1)[C@@H]1COc2cc(C(F)(F)F)ccc21 [Example 16, (S)-4-amino-N-(methyl-d3)-N-(6-(trifluoromethyl)-2,3-dihydrobenzofuran-3-yl)imidazo[1,5-a] quinoxaline-8-carboxamide] |  |  | 2300 nM |  |
| 11200 ng·h/mL | 44100 ng·h/mL | 4.53 h | 4.56 h | CN(C(=O)c1ccc2nc(N)c3cncn3c2c1)[C@@H]1COc2cc(C(F)(F)F)ccc21 [Example 107, (S)-4-amino-N-methyl-N-(6-(trifluoromethyl)-2,3-dihydrobenzofuran-3-yl)imidazo[1,5-a] quinoxaline-8-carboxamide] |  |  | 4500 nM |  |
| 10800 ng·h/mL | 28300 ng·h/mL | 4.5 h | 3.34 h | CN(C(=O)c1ccc2nc(N)c3cncn3c2c1)[C@@H]1COc2cc(C(F)(F)C(F)(F)F)ccc21 [Example 130, (S)-4-amino-N-methyl-N-(6-(perfluoroethyl)-2,3-dihydrobenzofuran-3-yl)imidazo[1,5-a] quinoxaline-8-carboxamide] |  |  | 1360 nM |  |

The remaining lines, values behind:

| Compound | AUC(0-t) ([1]; IV 3 mg/kg) | AUC(0-t) ([1]; PO 10 mg/kg) | half-life ([1]; IV 3 mg/kg) | half-life ([1]; PO 10 mg/kg) | bioavailability ([1]; PO 10 mg/kg vs IV 3 mg/kg, read-out: Bioavailability F) | IC50 [2] | IC50 [3] | IC50 [4] |
| --- | --- | --- | --- | --- | --- | --- | --- | --- |
| CN(C(=O)c1ccc2nc(N)c3cncn3c2c1)[C@@H]1COc2cc(S(F)(F)(F)(F)F)ccc21 (single isomer, unassigned) [Example 104] | 10500 ng·h/mL | 26500 ng·h/mL | 6.1 h | 5.02 h | 74% | 4.6 nM | 1510 nM | 591 nM |
| CN(C(=O)c1cc2c(cn1)nc(N)c1cncn12)[C@@H]1COc2cc(C(F)(F)F)ccc21 [Example 4, (S)-4-amino-N-methyl-N-(6-(trifluoromethyl)-2,3-dihydrobenzofuran-3-yl)imidazo[1,5-a] pyrido[3,4-e] pyrazine-8-carboxamide] | 8090 ng·h/mL | 21000 ng·h/mL | 4.06 h | 2.67 h |  |  | 5290 nM |  |
| [2H]C([2H])([2H])N(C(=O)c1cc2c(cc1F)nc(N)c1cncn12)[C@@H]1COc2cc(C(F)(F)F)ccc21 [Example 41, (S)-4-amino-7-fluoro-N-(methyl-d3)-N-(6-(trifluoromethyl)-2,3-dihydrobenzofuran-3-yl)imidazo[1,5-a] quinoxaline-8-carboxamide] | 5420 ng·h/mL | 46300 ng·h/mL | 4.3 h | 4.12 h |  |  | 8160 nM |  |
